In paper PMC11148078, “Potent activity of polymyxin B is associated with long-lived super-stoichiometric accumulation mediated by weak-affinity binding to lipid A” (Nature Communications, 2024):
pKd: −log10 of the molar value. Bridge positions count the residues as written; N and C are the ends. Square brackets hold non-standard residues; d marks the D form. Peptide text beside a SMILES is read from it. * marks the point of attachment. X1 = CC[C@H](C)CCCCC(=O)*; Dab = NCC[C@H](N)C(=O)O

Tested on: resistant-OMVs
Assay: Three-state model fit to SPR titration, resistant-OMVs
Assay type: binding, E. coli
Settings: resistant-OMV
From the text: To estimate binding constants, the three-state model was fit to binding curve titrations (Fig. 5A, B, and Table 2). Briefly, the SPR response curves of polymyxin B binding wt-OMVs (Fig. 5A) or resistant OMVs (Fig. 5B) were globally fit to Eqn. (1) by non-linear regression coupled to numerical integration of the associated ordinary differential equations (see Supplementary Information Section 2A), which define the time-dependent concentrations of each species.1 Response(t)=([PMBL]t+[nPMBL]t+2*[tPMB]t+m.[cPMB]t).MW.G.
Section 2A - Formulation of three-state model for fitting SPR data
The three-state model (Fig. 4) was formulated as a set of coupled ordinary differential equations (ODEs), with eight binding rate constants (k1-8) governing the rates of interchange of each species.
Forward rate constants k7 and k9 were eliminated from the equation set as formation of transient species tPMB and LL are irreversible.
Time at Injection 1 start = 0 s
Sample contact time = 30 s
Dissociation time interval = 35 s
Mass transport rate = kt = 46.5 1/s
Initial Species Concentrations
Coupled ODEs of Three-State Model d[L]/dt = -(k1.[PMB].[L] - k2.[PMBL])+2*k10.[LL] (S8) d[PMB]/dt = -(k1.[PMB].[L] - k2.[PMBL]) + kt’.([PMBi](t) –[PMB]) (S9) d[PMBL]/dt = (k1.[PMB]*[L] - k2.[PMBL])-(k3.[PMBL].[n] - k4.[nPMBL] ) (S10) d[n]/dt = -(k3.[PMBL].[n] - k4.[nPMBL] ) (S11) d[nPMBL]/dt = (k3.[PMBL].[n] - k4.[nPMBL])-2.(k5.[nPMBL].[nPMBL] - k6.[tPMB].[LL] ) (S12) d[tPMB]/dt = (k5.[nPMBL].[nPMBL] - k6.[tPMB].[LL] ) – k8.[tPMB] (S13) d[cPMB]/dt = 2*k8.[tPMB] (S14) d[LL]/dt = (k5.[nPMBL].[nPMBL] – k6.[tPMB].[LL]) – k10.[LL] (S15)
The initial concentrations of each species were as follows
[PMB]t=0 = [PMBL]t=0 = [nPMBL]t=0 = [tPMB]t=0 = [LL]t=0 = [cPMB]t=0 = 0 [L]t=0 = [n]t=0 = 1.56 x 10-4 (units, M) kt’ (units, m/s) was already defined in SI Section 1A. [PMBi](t) is the injected concentration profile and [PMB]t is the concentration profile at the sensing surface. [PMBi](t) follows a serial-doubling concentration of injected analyte, with a concentration profile defined by a serial step function, where each injection step represents a discrete concentration followed by a dissociation step without injected analyte and this is repeated for each concentration in the SCK dosing series.
Kintek Explorer V9.5 was used to build and fit the three-state model. This program employs its own numerical integrator9, which reports the change in concentration of each species over time.
The SPR responses for concentrations of each accumulating PMB-species estimated from Eqn (8 - 15) are summed over time in Eqn (1), repeated here.
Response(t) = ([PMBL]t+[nPMBL]t+2*[tPMB]t+m.[cPMB]t).MW.G. Eqn (1)
The concentration of [tPMB]t is multiplied by two to account for its additional mass, being composed of two PMB molecules. […]

CC[C@H](C)CCCCC(=O)N[C@@H](CCN)C(=O)N[C@H](C(=O)N[C@@H](CCN)C(=O)N[C@H]1CCNC(=O)[C@H]([C@@H](C)O)NC(=O)[C@H](CCN)NC(=O)[C@H](CCN)NC(=O)[C@H](CC(C)C)NC(=O)[C@@H](Cc2ccccc2)NC(=O)[C@H](CCN)NC1=O)[C@@H](C)O [Polymyxin B] (X1-[Dab]T[Dab][Dab][Dab][dF]L[Dab][Dab]T; lactam 4-C (inferred); N-terminus assumed)
k3 (first two states, max 625 nM): 335 M⁻¹ s⁻¹
k4 (first two states, max 625 nM): 0.0085 s⁻¹
pKd (fitted, first two states, max 625 nM, read-out: KD = k2/k1): 6.57
kt (mass transport rate): 44.6 ms^−1
